We go through 30 molecules from patent publication US20160137630A1, “INDUCTION OF GATA2 BY HDAC1 AND HDAC2 INHIBITORS” (ACETYLON PHARMACEUTICALS, INC., priority 2014, published 2016).

Several values for one entry are separate records, joined by “and”; a condition that tells them apart may be missing. Equal entries are not always repeated. Where two headings read alike, the source gives them in different places. A value given as a limit tells only on which side of the number the result lay.

Experiment [1] concerns the target HDAC1 (Homo sapiens, UniProt Q13547). Briefly: in vitro biochemical HDAC inhibition assay. Particulars: read-out: IC50 HDAC1.
Experiment [2] addresses HDAC2 (Homo sapiens, UniProt Q92769). Put plainly: in vitro biochemical HDAC inhibition assay. Particulars: read-out: IC50 HDAC2.
Experiment [3] concerns the target HDAC3 (Homo sapiens, UniProt O15379). Put plainly: in vitro biochemical HDAC inhibition assay. Particulars: for IC50: read-out: IC50 HDAC3.
The test system of experiment [4] is Gata2 mRNA. Briefly: induction of Gata2 mRNA in erythroid progenitors by HDAC1,2 inhibitors. The class given is cell-based, human. The settings on record: erythroid progenitors differentiated 3 days with compound; FIG. 2A-C. From the text:
Human bone marrow derived CD34+ cells were expanded for 7 days as described by Sankaran et al., Science, vol. 322(5909), pp. 1839-42 (2008). Cells were then differentiated, in the presence of the indicated compound (i.e., Compounds 001, Compound Y, Compound 2005, Compound 2004, Compound 2003), for 3 days in media supporting erythropoiesis (Hu et al., “Isolation and functional characterization of human erythroblasts at distinct stages: implications for understanding of normal and disordered erythropoiesis in vivo”, Blood, vol. 121(16), pp. 3246-53 ([…])). FIG. 2A, FIG. 2B, and FIG. 2C each represents an experimental series performed on different days and with different donor cells.

HDAC3, sequence (O15379 whole entry): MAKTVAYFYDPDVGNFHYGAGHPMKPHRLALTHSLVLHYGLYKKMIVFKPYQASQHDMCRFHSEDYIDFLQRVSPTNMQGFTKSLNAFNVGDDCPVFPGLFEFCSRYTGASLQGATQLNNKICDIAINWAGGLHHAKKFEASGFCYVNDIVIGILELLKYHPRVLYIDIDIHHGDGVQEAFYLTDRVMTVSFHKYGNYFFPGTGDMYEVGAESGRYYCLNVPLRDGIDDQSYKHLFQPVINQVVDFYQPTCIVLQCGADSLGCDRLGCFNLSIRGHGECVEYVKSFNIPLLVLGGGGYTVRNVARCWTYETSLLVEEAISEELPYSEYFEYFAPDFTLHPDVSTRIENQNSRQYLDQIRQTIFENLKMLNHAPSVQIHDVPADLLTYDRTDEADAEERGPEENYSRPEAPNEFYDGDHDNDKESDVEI
HDAC3, sequence (Q9Y618 395-489 partner limits assumed): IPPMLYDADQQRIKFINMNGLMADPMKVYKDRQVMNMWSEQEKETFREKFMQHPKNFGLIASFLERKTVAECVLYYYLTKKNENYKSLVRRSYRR
HDAC1, sequence (Q13547 whole entry): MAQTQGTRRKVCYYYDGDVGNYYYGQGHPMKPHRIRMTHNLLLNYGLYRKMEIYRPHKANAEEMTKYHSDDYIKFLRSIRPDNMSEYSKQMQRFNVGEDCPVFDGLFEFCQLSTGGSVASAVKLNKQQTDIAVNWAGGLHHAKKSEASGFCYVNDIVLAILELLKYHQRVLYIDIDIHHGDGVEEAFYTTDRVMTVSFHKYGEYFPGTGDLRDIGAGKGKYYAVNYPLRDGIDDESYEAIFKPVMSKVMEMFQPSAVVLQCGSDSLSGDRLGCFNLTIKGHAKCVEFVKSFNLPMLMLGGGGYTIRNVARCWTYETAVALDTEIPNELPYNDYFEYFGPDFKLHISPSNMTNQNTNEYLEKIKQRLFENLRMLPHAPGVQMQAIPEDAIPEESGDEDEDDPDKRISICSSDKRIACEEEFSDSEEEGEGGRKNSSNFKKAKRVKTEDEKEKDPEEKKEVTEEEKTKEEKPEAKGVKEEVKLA
HDAC2, sequence (Q92769 whole entry): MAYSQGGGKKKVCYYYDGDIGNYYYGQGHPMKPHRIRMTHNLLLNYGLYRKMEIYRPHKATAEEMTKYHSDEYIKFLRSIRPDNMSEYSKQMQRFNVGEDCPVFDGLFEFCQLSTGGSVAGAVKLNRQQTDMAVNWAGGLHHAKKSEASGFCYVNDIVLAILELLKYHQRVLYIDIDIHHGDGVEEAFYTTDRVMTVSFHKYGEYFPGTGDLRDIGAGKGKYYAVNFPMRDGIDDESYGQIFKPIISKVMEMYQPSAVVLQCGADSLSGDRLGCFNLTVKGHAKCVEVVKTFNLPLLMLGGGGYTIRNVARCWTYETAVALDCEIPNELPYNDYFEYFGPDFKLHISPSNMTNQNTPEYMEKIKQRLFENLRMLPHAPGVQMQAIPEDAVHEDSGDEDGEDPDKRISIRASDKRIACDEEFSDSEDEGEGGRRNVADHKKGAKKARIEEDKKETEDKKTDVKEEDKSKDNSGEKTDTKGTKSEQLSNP

As to `COCCOc1cc2ncc(C(=O)Nc3cc(-c4ccccc4)ccc3N)cc2cc1C1CC1` [N-(4-amino-[1,1′-biphenyl]-3-yl)-6-cyclopropyl-7-(2-methoxyethoxy)quinoline-3-carboxamide], the IC50 (commonly the point on the concentration scale where inhibition reaches its midpoint) in experiment [1] (Table 2) is greater than 2 µM; in experiment [2] (Table 2), 1.56 µM; in experiment [3] (Table 2) it was greater than 2 µM.
As to `Nc1ccc(-c2ccccc2)nc1NC(=O)c1cnc2cc(N3CCNCC3)ccc2c1` [N-(3-amino-6-phenylpyridin-2-yl)-7-(piperazin-1-yl)quinoline-3-carboxamide], the IC50 in experiment [1] (Table 2) was 1.97 µM; in experiment [2] (Table 2), 0.336 µM; in experiment [3] (Table 2) it was 0.798 µM.
Regarding `Nc1ccc(-c2cccs2)cc1NC(=O)/C=C/c1ccc(N2CCNCC2)c(C2CC2)c1` [Compound 2002], the IC50 in experiment [1] (Table 4) is 0.014 µM; in experiment [2] (Table 4) it was 0.0219 µM; in experiment [3] (Table 4), 0.136 µM. Moreover, the “Gata2 mRNA” value in experiment [4] is given as “induction of Gata2 mRNA”.
Turning to `COCCN(C)c1cc2ncc(C(=O)Nc3cc(-c4ccccc4)ccc3N)cc2cc1C1CC1` [N-(4-amino-[1,1′-biphenyl]-3-yl)-6-cyclopropyl-7-((2-methoxyethyl)(methyl)amino)quinoline-3-carboxamide], the half-inhibitory concentration (IC50) in experiment [1] (Table 2) was greater than 2 µM; in experiment [2] (Table 2), 1.22 µM; in experiment [3] (Table 2), greater than 2 µM.
For the molecule `COCCn1cc(C2CC2)c2cc(C(=O)Nc3cc(-c4ccccc4)ccc3N)ccc21` [N-(4-amino-[1,1′-biphenyl]-3-yl)-3-cyclopropyl-1-(2-methoxyethyl)-1H-indole-5-carboxamide], the IC50 in experiment [1] (Table 2), in experiment [2] (Table 2) and in experiment [3] (Table 2) was greater than 2 µM in each case.
Take `CC1(Nc2ccc(C(=O)Nc3cc(-c4ccncc4)ccc3N)cc2)CCN(C(=O)N2CCOCC2)CC1` [Compound 2010]: the IC50 in experiment [1] (Table 4) came out at 0.012 µM; in experiment [2] (Table 4), 0.0168 µM; in experiment [3] (Table 4), 0.511 µM. Also, the “Gata2 mRNA” value in experiment [4] is listed as “induction of Gata2 mRNA”.
Regarding `Nc1ccc(-c2ccccc2)cc1NC(=O)c1ccc2c(c1)c(C1CC1)cn2CCN1CCOCC1` [N-(4-amino-[1,1′-biphenyl]-3-yl)-3-cyclopropyl-1-(2-morpholinoethyl)-1H-indole-5-carboxamide], the IC50 was greater than 2 µM in experiment [1] (Table 2), 0.681 µM in experiment [2] (Table 2) and 1.91 µM in experiment [3] (Table 2).
On the same counts, the results for `CN1CCN(CCn2ccc3cc(C(=O)Nc4cc(-c5ccccc5)ccc4N)ccc32)CC1` [N-(4-amino-[1,1′-biphenyl]-3-yl)-1-(2-(4-methylpiperazin-1-yl)ethyl)-1H-indole-5-carboxamide] are 0.0071 µM, 0.011 µM and 0.175 µM.
With `Nc1ccccc1NC(=O)c1ccc(N2CCNCC2)cc1C1CC1` [Compound 2006], the values for the IC50 in experiment [1] (Table 4), in experiment [2] (Table 4) and in experiment [3] (Table 4) were 1.4 µM, greater than 2 µM and 0.023 µM, respectively.
As for `Nc1ccc(-c2cccs2)cc1NC(=O)c1cnc2c(C3CC3)c(N3CCNCC3)ccc2c1` [N-(2-amino-5-(thiophen-2-yl)phenyl)-8-cyclopropyl-7-(piperazin-1-yl)quinoline-3-carboxamide], the IC50 in experiment [1] (Table 2) came out at 0.0031 µM; in experiment [2] (Table 2) it was 0.014 µM; in experiment [3] (Table 2) it was 0.099 µM.
Turning to `Nc1ccc(-c2ccncc2)cc1NC(=O)c1ccc2c(c1)cc(C1CC1)n2CCN1CCOCC1` [Compound Y], in experiment [4], the “Gata2 mRNA” value was “induction of Gata2 mRNA”.
Turning to `Nc1ccc(-c2ccccc2)cc1NC(=O)/C=C/c1ccc(N2CCNCC2)c(C2CC2)c1` [Compound 2001], the IC50 amounted to 0.0273 µM in experiment [1] (Table 4), 0.0323 µM in experiment [2] (Table 4) and 0.218 µM in experiment [3] (Table 4). The “Gata2 mRNA” value in experiment [4] was “induction of Gata2 mRNA”.
In the case of `Nc1ccc(-c2ccccc2)cc1NC(=O)c1cnc2c(C3CC3)c(NCc3ccccc3)ccc2c1` [N-(4-amino-[1,1′-biphenyl]-3-yl)-7-(benzylamino)-8-cyclopropylquinoline-3-carboxamide], the IC50 in experiment [1] (Table 2) was 0.652 µM; in experiment [2] (Table 2) it was greater than 2 µM. The “IC50 HDAC3” value in experiment [3] (Table 2) was “HDAC3 = No inhibition”.
For the molecule `CC1(Nc2ncc(C(=O)Nc3cc(-c4cccs4)ccc3N)cn2)CCN(C(=O)N2CCCC2)CC1` [Compound 2005], the half-maximal inhibitory concentration (IC50) came to 0.0102 µM in experiment [1] (Table 4), 0.0141 µM in experiment [2] (Table 4) and 0.673 µM in experiment [3] (Table 4). For the same molecule, in experiment [4], the “Gata2 mRNA” value is “induction of Gata2 mRNA”.
For `COCCNc1cc2ncc(C(=O)Nc3cc(-c4cccs4)ccc3N)cc2cc1C1CC1` [N-(2-amino-5-(thiophen-2-yl)phenyl)-6-cyclopropyl-7-((2-methoxyethyl)amino)quinoline-3-carboxamide], the IC50 in experiment [1] (Table 2) was found to be 0.089 µM; in experiment [2] (Table 2), 0.243 µM; in experiment [3] (Table 2) it was 1.55 µM.
For the molecule `Nc1ccc(-c2ccccc2)cc1NC(=O)c1ccc2nn(CCN3CCOCC3)cc2c1` [N-(4-amino-[1,1′-biphenyl]-3-yl)-2-(2-morpholinoethyl)-2H-indazole-5-carboxamide], the 50% inhibitory concentration (IC50) is 0.011 µM in experiment [1] (Table 2), 0.023 µM in experiment [2] (Table 2) and 0.477 µM in experiment [3] (Table 2).
On the same counts, the results for `Nc1ccc(-c2ccccc2)cc1NC(=O)c1cnc2c(ccn2CCN2CCOCC2)c1` [N-(4-amino-[1,1′-biphenyl]-3-yl)-1-(2-morpholinoethyl)-1H-pyrrolo[2,3-b]pyridine-5-carboxamide] are 0.0068 µM, 0.031 µM and 0.373 µM.
As for `CN1CCN(C(=O)N2CCC(C)(Nc3ncc(C(=O)Nc4cc(-c5cccs5)ccc4N)cn3)CC2)CC1` [Compound 2009], the IC50 in experiment [1] (Table 4) was 0.00853 µM; in experiment [2] (Table 4) it was 0.0315 µM; in experiment [3] (Table 4), 0.259 µM.
With `Nc1sc(-c2ccccc2)cc1NC(=O)c1cnc2cc(N3CCNCC3)ccc2c1` [N-(2-amino-5-phenylthiophen-3-yl)-7-(piperazin-1-yl)quinoline-3-carboxamide], the IC50 was found to be 1.21 µM in experiment [1] (Table 2), 0.193 µM in experiment [2] (Table 2) and 0.171 µM in experiment [3] (Table 2).
In the case of `Nc1ccc(-c2ccccc2)cc1NC(=O)c1cnc2c(C3CC3)c(N3CCOCC3)ccc2c1` [N-(4-amino-[1,1′-biphenyl]-3-yl)-8-cyclopropyl-7-morpholinoquinoline-3-carboxamide], the IC50 in experiment [1] (Table 2) is 0.295 µM; in experiment [2] (Table 2) it was 0.799 µM; in experiment [3] (Table 2), greater than 2 µM.
On the same counts, the results for `Nc1ccc(-c2ccccc2)cc1NC(=O)c1ccc2c(c1)cc(C1CC1)n2CCN1CCOCC1` [N-(4-amino-[1,1′-biphenyl]-3-yl)-2-cyclopropyl-1-(2-morpholinoethyl)-1H-indole-5-carboxamide] are 0.015 µM, 0.07 µM and 0.689 µM.
On the same counts, the results for `Nc1ccccc1NC(=O)c1ccc2nc(N3CCNCC3)ccc2c1` [N-(2-aminophenyl)-2-(piperazin-1-yl)quinoline-6-carboxamide] are greater than 2 µM, 0.624 µM and 0.104 µM.
On the same counts, the results for `Nc1ccc(-c2cccs2)cc1NC(=O)c1ccc2nc(N3CCNCC3)cnc2c1` [N-(2-amino-5-(thiophen-2-yl)phenyl)-2-(piperazin-1-yl)quinoxaline-6-carboxamide] are 0.007 µM, 0.012 µM and 0.071 µM.
As for `Nc1cnc(-c2ccccc2)cc1NC(=O)c1cnc2cc(N3CCNCC3)ccc2c1` [N-(5-amino-2-phenylpyridin-4-yl)-7-(piperazin-1-yl)quinoline-3-carboxamide], the IC50 in experiment [1] (Table 2) was 1.23 µM; in experiment [2] (Table 2) it was 1.19 µM and 1.88 µM.
As to `Nc1ccc(-c2ccccc2)cc1NC(=O)c1ccc2c(cnn2CCN2CCOCC2)c1` [N-(4-amino-[1,1′-biphenyl]-3-yl)-1-(2-morpholinoethyl)-1H-indazole-5-carboxamide], the half-maximal inhibitory concentration (IC50) in experiment [1] (Table 2) was determined as 0.0074 µM; in experiment [2] (Table 2), 0.019 µM; in experiment [3] (Table 2) it was 0.344 µM.
In the case of `Nc1ccc(-c2ccccc2)cc1NC(=O)c1cnc2c(N3CCNCC3)c(C3CC3)ccc2c1` [N-(4-amino-[1,1′-biphenyl]-3-yl)-7-cyclopropyl-8-(piperazin-1-yl)quinoline-3-carboxamide], the half-inhibitory concentration (IC50) was determined as 0.103 µM in experiment [1] (Table 2), 0.056 µM in experiment [2] (Table 2) and 0.257 µM in experiment [3] (Table 2).
On to `Nc1ccc(-c2ccccc2)cc1NC(=O)c1cnc2c(C3CC3)c(N3CCNCC3)ccc2c1` [N-(4-amino-[1,1′-biphenyl]-3-yl)-8-cyclopropyl-7-(piperazin-1-yl)quinoline-3-carboxamide], for which the IC50 in experiment [1] (Table 2) amounted to 0.0078 µM; in experiment [2] (Table 2), 0.015 µM; in experiment [3] (Table 2) it was 0.164 µM.
`COCCNc1ccc2cc(C(=O)Nc3cc(-c4ccccc4)ccc3N)cnc2c1C1CC1` [N-(4-amino-[1,1′-biphenyl]-3-yl)-8-cyclopropyl-7-((2-methoxyethyl)amino)quinoline-3-carboxamide]: the values for the IC50 in experiment [2] (Table 2) and in experiment [3] (Table 2) were 0.301 µM and greater than 2 µM, respectively.
`Nc1cc(-c2ccccc2)sc1NC(=O)c1cnc2cc(N3CCNCC3)ccc2c1` [N-(3-amino-5-phenylthiophen-2-yl)-7-(piperazin-1-yl)quinoline-3-carboxamide]: the IC50 in experiment [1] (Table 2), in experiment [2] (Table 2) and in experiment [3] (Table 2) was greater than 2 µM each time.
For `COCCN(C)c1cc2ncc(C(=O)Nc3cc(-c4cccs4)ccc3N)cc2cc1C1CC1` [N-(2-amino-5-(thiophen-2-yl)phenyl)-6-cyclopropyl-7-((2-methoxyethyl)(methyl)amino)quinoline-3-carboxamide], the values for the IC50 in experiment [1] (Table 2), in experiment [2] (Table 2) and in experiment [3] (Table 2) were 0.944 µM, 0.667 µM and greater than 2 µM, respectively.
